The record followed here is patent US7666644B2, “Glyphosate-N-acetyltransferase (GAT) genes” (Verdia, Inc., priority 2004, dated 2010).

For series [1], the system named is soybeans expressing GAT and HRA transgenes. The series can be described thus: T1 post-emergence sulfonamide spray of soybeans expressing GAT and HRA transgenes. Type of series: in vivo, soybean. The settings on record: GAT (SEQ ID NO: 824)/SAMS promoter-HRA events. The method, then: T1 seed generated from experiments as described in Example 17 were germinated in RediEarth^R 360 medium in the greenhouse. Plants were sprayed at the V2-V3 stage (14 days after potting) with thifensulfuron, chlorimuron, rimsulfuron or tribenuron (70, 70, 35, 35 gm a.i./hectare, respectively). Plants were evaluated 10 days post application based on plant discoloration scores described in Example 17.
Events having a plant discoloration rating 7 or 8 after thifensulfuron spray were sprayed with either a 2× or 4× application of glyphosate after 10 days as per methods described in Example 17. Events were evaluated based on discoloration scores described in Example 17. All thifensulfuron tolerant events survived the glyphosate spray with score of 7 or 8 (results not shown).

Series [2] has the same test system. Nature of the series: T1 pre-emergence sulfonamide spray of soybeans expressing GAT and HRA transgenes. More on the design: key: 9=no leaf/stem discoloration; 7=minor leaf/stem discoloration; 5=worse leaf/stem discoloration; 3=severely discolored plant or dying plant; 1=dead plant. Type of series: in vivo, soybean. The settings on record: 70 gms a.i./hectare, 10 days post spray, all HRA and GAT events. The protocol:
T1 seed generated from experiments as described in Example 17, were planted in pots of Tama Silt loam in the greenhouse. Pots were immediately sprayed with a pre-emergence application of chlorimuron, rimsulfuron or tribenuron at a rate of 70 gms a.i./hectare. Germinating plants were evaluated 10 days post spray application based on plant discoloration scores described in Example 17. All HRA and GAT events survived all pre-emergence spray applications with a rating of 9 (uninjured).

In series [3] the target is T1, Bacillus licheniformis strain B6 glyphosate-N-acetyltransferase (GAT), native, SEQ ID NO:7 (Bacillus paralicheniformis, UniProt A0AAW6KBE1).
T1 construct: untagged
Nature of the series: Apparent KM and kcat of purified GAT (Example 2). The class given is biochemical. The conditions noted are these: read-out: KM for Acetyl CoA; apparent; 5 mM glyphosate, 5 mM morpholine pH 7.7, 50% methanol; MS detection.
Description: Lysis of the cells was effected by the addition of 1 ml of the following buffer to 0.2 g of cells: 25 mM HEPES, pH 7.3, 100 mM KCl and 10% methanol (HKM) plus 0.1 mM EDTA, 1 mM DTT, 1 mg/ml chicken egg lysozyme, and a protease inhibitor cocktail obtained from Sigma and used according to the manufacturer's recommendations. After 20 minutes incubation at room temperature (e.g., 22-25° C.), lysis was completed with brief sonication. The lysate was centrifuged and the supernatant was desalted by passage through Sephadex G25 equilibrated with HKM. Partial purification was obtained by affinity chromatography on CoA Agarose (Sigma). The column was equilibrated with HKM and the clarified extract was allowed to pass through under hydrostatic pressure.
Purification to homogeneity was obtained by gel filtration of the partially purified protein through Superdex 75 (Pharmacia).
Initial reaction rates were determined using mass spectrometric detection of N-acetyl glyphosate. Five μl were repeatedly injected into the instrument and reaction rates were obtained by plotting reaction time vs area of the integrated peak (FIG. 6).

In series [4] the test system is native or low activity GAT enzymes (glyphosate-N-acetyltransferase). The series can be described thus: Kinetics typical of native or low activity GAT enzymes (Example 4). Type of series: biochemical. The conditions noted are these: read-out: KM for acetyl CoA.
The nature of series [5]: Kinetics of GAT variants modified next to the initiating methionine. The class given is biochemical. The text has this: A second way to increase plant expression of microbial genes is to increase the G+C content near the initiating methionine residue. Naturally-occurring coding sequences in plants tend to contain two or three G and/or C residues immediately downstream of the ATG initiation codon (Joshi et al. (1997) Plant Mol. Biol. 35:993-1001). Introducing into the gat coding sequence one or two CG-rich codons immediately downstream of the ATG intitiation codon may create a more plant-like coding sequence and thus may enhance its expression in plants.

Series [6] is described as follows: Transfer of the propionyl group from propionyl CoA to glyphosate, DTNB detection. Type of series: biochemical. The conditions noted are these: 1 mM propionyl CoA, 5 mM glyphosate or no glyphosate, 30 minutes. The method, then:
The ability of GAT variants (B6 (SEQ ID NO:7), 0—6D10 (SEQ ID NO:448), 17-15H3 (SEQ ID NO:601), and 20-8H12c (SEQ ID NO:817)) to transfer the propionyl group from propionyl CoA to glyphosate was tested in reaction mixtures containing 5 mM glyphosate or no glyphosate. Propionyl CoA was present at 1 mM. After 30 minutes the reactions were terminated and the presence of free […] was determined by the addition of DTNB.

For series [7], the system named is tobacco plants. The series can be described thus: Herbicide spray tests of GAT expressing tobacco plants. Type of series: in vivo, Nicotiana tabacum. The method, then: Tobacco shoots generated as described in EXAMPLE 9 were excised from the explants and transferred to basal root induction (BRI) medium composed of half-strength Murashige and Skoog (MS) medium, pH 5.7, with 1.5% sucrose, 0.3% Gelrite, 0-200 uM glyphosate and 400 ug/ml Timentin. Rooted plants and axillary shoots were clonally propagated by cutting the stem and transferring it to fresh BRI medium until the desired number of clones was obtained. Rooted plants were carefully removed from the solid medium. Prior to placing the plants into small pots of soil, the roots were washed to remove any remaining Gelrite. A protective plastic cover was kept over the plants for at least one week until the plants were well established.
To determine if GAT expressing tobacco plants could tolerate simulated field rate sprays of glyphosate, clonal lines of several events per GAT variant were tested. A typical test was set up as follows: One clone from each event was sprayed with 1 ml of solution containing the isopropylamine salt of glyphosate (Sigma P5671) and 0.125% Triton X-100, pH 6.8 such that the amount of active ingredient sprayed was equivalent to that present in commercial glyphosate products. For example, to achieve 32 oz/acre (1×) of herbicide containing 40% active ingredient (“ai”), 2.4 ul of 40% ai formulation was diluted into 1 ml water and sprayed on a plant in a 4-inch square pot (16 in^2). A mock application (0×) with surfactant only was also included. In some cases a second spray was applied 1-4 weeks later. Plants were kept in controlled growth rooms at 25° C. and 70% humidity with 16 hr light.
Seed-grown wild type plants were also sprayed. […] All 0× plants were healthy, including the non-GAT control plants. Three weeks later all of the surviving plants were sprayed with an 8× dose.

For series [8], the system named is maize plants. Nature of the series: Effect of temperature variation on glyphosate tolerance of T1 maize expressing GAT transgenes. Type of series: in vivo. The conditions noted are these: cool/cold, warm and hot conditions, 0×, 4×, 6×, 8× glyphosate at V2, scored 5 and 14 days. The method, then: Maize plants expressing GAT variant transgenes 10—4F2 (SEQ ID NO:203), 17-15H3 (SEQ ID NO:549), and 18-28D9b (SEQ ID NO:814) were produced using the methods described in Example 13. The effect of temperature on glyphosate tolerance was evaluated in T1 plants. The T1 plants were grown in cool/cold (day 14° C., night 8° C.), warm (day 28° C., night 20° C.), and hot (day 37° C., night 20° C.) conditions. T1 plants were sprayed at V2 with four different glyphosate spray treatments (0×, 4×, 6×, and 8×). Plants were scored at 5 and 14 days after treatment for leaf discoloration and plant height comparisons as described in Example 13.

The mark [9] stands for this setting: 70 gm a.i./ha post-emergence at V2-V3, 10 days after treatment.
[10] abbreviates: 35 gm a.i./ha post-emergence at V2-V3, 10 days after treatment.

As for `COc1nc(C)nc(NC(=O)NS(=O)(=O)c2ccsc2C(=O)O)n1` [Thifensulfuron], in series [1] (setting [9]), the “Average Resistance scores” value came out at 7.81.
The molecule `CCS(=O)(=O)c1cccnc1S(=O)(=O)NC(=O)Nc1nc(OC)cc(OC)n1` [Rimsulfuron] yielded a plant discoloration rating in series [2] of 9. In addition, the “Average Resistance scores” value in series [1] (setting [10]) is on record as 2.21.
In turn, `COc1cc(Cl)nc(NC(=O)NS(=O)(=O)c2ccccc2C(=O)O)n1` [Chlorimuron] returned a plant discoloration rating in series [2] of 9. For the same molecule, in series [1] (setting [9]), the “Average Resistance scores” value was 7.75.
Take `CC(=O)SCCNC(=O)CCNC(=O)[C@H](O)C(C)(C)COP(=O)(O)OP(=O)(O)OC[C@H]1O[C@@H](n2cnc3c(N)ncnc32)[C@H](O)[C@@H]1OP(=O)(O)O` [acetyl CoA]: the Km – broadly, the substrate concentration at which the rate is half of its maximum – is 2 µM in series [3] and below 25 µM in series [4].
The molecule `COc1nc(C)nc(N(C)C(=O)NS(=O)(=O)c2ccccc2C(=O)O)n1` [Tribenuron] showed a plant discoloration rating in series [2] of 9. Moreover, the “Average Resistance scores” value in series [1] (setting [10]) turned out to be 3.83.

B1: 22-15B4 M1MA: 22-15B4 with one alanine inserted between Met1 and Ile2, SEQ ID NO:946 (protein)
chain: MAIEVKPINAEDTYDLRHRVLRPNQPIEACMFDSDLMRSAFHLGGFYGGKLISVASFHQAEHTELQGQKQYQLRGVATLEGYREQKAGSSLVKHAEEILRKRGVDLLWCNARTSASGYYKKLGFSEQGEVFDTPPVGPHILMYKRIT
modifications: 22-15B4 M1MA
As for B1, in series [5], the “kinetics compared to the unmodified enzyme” value is on record as “essentially unaltered kinetics”.

B2: 22-15B4 M1MAA: 22-15B4 with two alanines inserted between Met1 and Ile2, SEQ ID NO:948 (protein)
chain: MAAIEVKPINAEDTYDLRHRVLRPNQPIEACMFDSDLMRSAFHLGGFYGGKLISVASFHQAEHTELQGQKQYQLRGVATLEGYREQKAGSSLVKHAEEILRKRGVDLLWCNARTSASGYYKKLGFSEQGEVFDTPPVGPHILMYKRIT
modifications: 22-15B4 M1MAA
As to B2, the “kinetics compared to the unmodified enzyme” value in series [5] is recorded as “reduced kcat”.

B3: 0—6D10: evolved GAT; gene SEQ ID NO:196, enzyme SEQ ID NO:448 (protein)
chain: MLEVKPINAEDTYELRHKILRPNQPLEVCMYETDLLRGAFHLGGFYRGKLISIASFHQAEHSDLQGQKQYQLRGMATLEGYRDQKAGSSLIRHAEQILRKRGADMLWCNARTSASGYYKKLGFSEQGEVFETPPVGPHILMYKRLT
modifications: 0_6D10
Take B3: the “glyphosate-dependent hydrolysis of propionyl CoA” value in series [6] is recorded as “showed glyphosate-dependent hydrolysis of propionyl CoA”. In addition, in series [7] (0.5, 2 or 4× glyphosate (1× = 32 oz/acre of 40% ai), clonally propagated events, average of 5 leaves), the “outcome two weeks after glyphosate spray” value is reported as “survived the spraying procedure without signs of glyphosate damage”. In addition, the “outcome after second spray with an 8× dose” value in series [7] (8× glyphosate three weeks later) is “survived”.

B4: 10—4F2: evolved GAT; enzyme SEQ ID NO:454, transgene printed as SEQ ID NO:203 (protein)
chain: MLEVKPINAEDTYELRHRILRPNQPIEACMFESDLLRGAFHLGGFYRGKLISIASFHQAEHSELQGQKQYQLRGMATLEGYREQKAGSSLIRHAEEILRKRGADMLWCNARTSASGYYKKLGFSEQGEIFETPPVGPHILMYKRLT
modifications: 10_4F2
As to B4, the “effect of growth temperature on glyphosate tolerance” value in series [8] is recorded as “not adversely effected”.

B5: 18-28D9b: GAT variant transgene, SEQ ID NO:814 (nucleic acid)
DNA: ATGATAGAGGTGAAACCGATTAACGCAGAGGATACCTATGAACTAAGGCATAGAATACTCAGACCAAACCAGCCGATAGAAGCGTGTATGTTTGAAAGCGATTTACTTCGTGGTGCATTTCACTTAGGCGGCTTTTACAGGGGCAAACTGATTTCCATAGCTTCATTCCACCAGGCCGAGCACTCGGAACTCCAAGGCCAGAAACAGTACCAGCTCCGAGGTATGGCTACCTTGGAAGGTTATCGTGAGCAGAAAGCGGGATCAACTCTAGTTAAACACGCTGAAGAAATCCTTCGTAAGAGGGGGGCGGACATGCTTTGGTGTAATGCGCGGACATCCGCCTCAGGCTACTACAAAAAGTTAGGCTTCAGCGAGCAGGGAGAGATATTTGACACGCCGCCAGTAGGACCTCACATCCTGATGTATAAAAGGATCACATAA
modifications: Synthetic nucleic acid sequence; CDS (1)...(441); 18-28D9b
Take B5: the “effect of growth temperature on glyphosate tolerance” value in series [8] is “not adversely effected”.
